Where “and” joins values, the source holds several entries; their conditions need not be identical. Equal values may be shown once. Entries after “also recorded” stand apart in the source; their conditions may differ. Read-outs that look alike come from different tables or passages of the source.
Assays:
[1] = tested on: Toxoplasma gondii tachyzoites of RH strain; test: Plaque assay (7 days) in NHDF monolayers infected with T. gondii; assay type: cell-based; conditions: 7 days of treatment, two independent experiments
Protocol: After NHDF reached confluency, each well was replaced with fresh medium containing one compound at a concentration of 1 µM, and then infected with 1000 newly egressed tachyzoites from RH strain [29]. Screening at 1 μM is recommended by MMV. As a control, infected cells were incubated with complete medium and 0.01% DMSO [29]. The plates were then kept in an incubator at 37 °C in a humid atmosphere with 5% CO2 for seven days. After this time, cultures were fixed with 70% ethanol and stained with crystal violet to observe the plates.
For that, 12-well plates containing a monolayer of NHDF were infected with 600 tachyzoites of the RH strain of T. gondii and treated with different concentrations for seven days. IC50s of compounds were calculated using GraphPad Prism 8.0 software.
Data were analyzed using GraphPad Prim 8.0 software. IC50 and CC50 calculations were performed by fitting the values of proliferation/viability in percentage to a non-linear curve followed by dose–response inhibition analysis through log(inhibitor) vs. normalized response.

NHDF cells = test: Cytotoxicity assay (MTS, 7 days); assay type: cell-based, Human; conditions: for CC50: MTS, read-out: Cytotoxicity against NHDF (7 Days) CC50
Protocol: (§1) For that, 96-well tissue plates containing NHDF cells were treated with different concentrations of compounds up to 10 µM for seven days. Control cells were incubated with 0.5% DMSO. At the end of the treatment, cell viability was then analyzed through the colorimetric method of MTS (Promega, Madison, WI, USA). […] Data were analyzed using GraphPad Prim 8.0 software. IC50 and CC50 calculations were performed by fitting the values of proliferation/viability in percentage to a non-linear curve followed by dose–response inhibition analysis through log(inhibitor) vs. normalized response.

[2] = tested on: Toxoplasma gondii tachyzoites of RH strain; test: Forty-eight-hour antiproliferative assay; assay type: cell-based; conditions: 48 h; for inhibition at 1 µM / inhibition at 0.25 µM: read-out: Inhibition of parasite proliferation
Protocol: NDHF cell monolayers were plated in a 24-well tissue plate containing coverslips, and after confluency was reached, cells were infected with a ratio of 5:1 parasite/host cells with freshly egressed RH strain tachyzoites for two hours. Then, cells were washed twice with phosphate-buffered saline, pH 7.4 (PBS), to remove non-invaded parasites and incubated with a complete medium for two hours more. After this time, infected cells were treated for 48 h with different concentrations of selected compounds, based on the IC50 obtained through plaque assay. At the end of the experiment, the cells were washed with PBS, stained with Bouin for 10 min, washed with 70% alcohol, and stained with solutions 2 and 3 of the Fast Panoptic kit for 60 and 10 s, respectively. Two hundred infected cells were quantified per slide using the 100× objective of a Leica DM500 optical microscope, stratifying the number of infected and non-infected cells and the amount of tachyzoite in each infected cell. The proliferation index is the ratio of the product of the total amount of tachyzoites and the percentage of infected cells by the total number of cells.

T. gondii tachyzoites = test: Ultrastructural analysis through transmission electron microscopy; assay type: cell-based, Toxoplasma gondii; conditions: 48 h
Protocol: T-25 cm^2 flasks for cell culture with confluent monolayers of NHDF were infected with freshly egressed tachyzoite in a ratio of 10:1 parasite per cell for 2 h of interaction. The flasks were washed and fresh RPMI was added for another two hours. After this, the compounds were added and infected cells were treated for 48 h. The sample fixation and processing for microscopy were performed as previously described.

[3] = Cytotoxicity assay (MTS, 7 days); assay type: cell-based, Human; conditions: human, NHDF cells, MTS, read-out: Cytotoxicity against NHDF (7 Days) CC50
Protocol: as §1

T. gondii Me49 strain = conditions: read-out: IC50 against T. gondii Me49 strain; cited from earlier work
T. gondii RH strain = conditions: read-out: IC50 against T. gondii RH strain; cited from earlier work
[4] = tested on: T. gondii tachyzoites (apicoplast); test: Immunofluorescence assay of apicoplast loss (anti-CPN60); assay type: cell-based, Toxoplasma gondii; conditions: 1 µM, 24 h
Protocol: Anti-CPN60 (kindly provided by Dr. Boris […], University of Georgia, USA) was used to label the apicoplast luminal protein CPN60 at a dilution of 1:2000. DAPI (5 μg/mL; Sigma-Aldrich) was used to label the DNA. After labeling, the coverslips were mounted onto slides using Prolong gold (Life Technologies, Eugene, OR, USA), and samples were examined on an Invitrogen EVOS fluorescence microscope.

[5] = tested on: Toxoplasma gondii tachyzoites of RH strain; test: Post-treatment recovery (washout) assay; assay type: cell-based; conditions: 3 days of treatment, 7 days recovery without drug; 0.001 to 1 µM tested
Protocol: NHDF monolayers in 12-well plates were infected with 5000 newly egressed tachyzoites from RH strain and then treated for 3 days with drug concentrations of 0.001 to 1 µM. After treatment, the medium with drugs was removed, and the cells were washed twice and incubated with a fresh medium without drugs for an additional 7 days to allow the remaining parasites (if still viable after treatment) to grow. The plates were then kept in an incubator at 37 °C in a humid atmosphere with 5% CO2 throughout the treatment.

Balamuthia Mandrillaris = tested on: Balamuthia Mandrillaris; parameters: method as in PMID 32560115; conditions: read-out: IC50 against Balamuthia Mandrillaris; cited from earlier work
[6] = concentrations up to 10 µM, two independent experiments
[7] = ND = 100% viability up to 10 µM

## Oc1cccc(C(Nc2nccs2)c2ccc3cccnc3c2O)c1 (stereo not shown) [MMV642550]
[1]
  IC50: 320 ± 17 nM
NHDF cells; [6]
  CC50: 6.73 µM
[2]; 0.5 µM
  Inhibition of T. gondii proliferation: around 75%
T. gondii tachyzoites; 1 µM
  Ultrastructural alterations on tachyzoites (TEM): affected the Golgi complex (GC) (Figure 4E) and induced extensive vacuolization inside the parasite body

## Cc1cc(C2CCCCC2)n(O)c(=O)c1 [Ciclopirox]
[1]; Toxoplasma gondii, NHDF, 168 h
  IC50: 497 ± 18.1 nM
[3]; [6]
  CC50 at 7 days: 4 µM
NHDF cells
  SI (Selectivity Index, CC50 NHDF cells/IC50 T. gondii): 8

## NC(=S)N/N=C/c1ncccc1N [Triapine]
[1]; Toxoplasma gondii, NHDF, 168 h
  IC50: 717.7 ± 0.1 nM
[3]; [6]
  CC50 at 7 days: 2.79 µM
NHDF cells
  SI (Selectivity Index, CC50 NHDF cells/IC50 T. gondii): 4
[2]; Toxoplasma gondii, 1 µM
  inhibition at 1 µM: > 60%

## Oc1c(C(Nc2nc3ccccc3s2)c2ccc(OC(F)F)cc2)ccc2cccnc12 (stereo not shown) [MMV019724]
[1]
  IC50: ≤ 200 nM and 109 nM
NHDF cells; [6]
  CC50: 2.5 µM
[2]; 0.25 µM
  Inhibition of parasite proliferation: more than 80%
[2]; 1 µM
  Inhibition of parasite proliferation: 99%
T. gondii tachyzoites; 0.25 µM
  Ultrastructural alterations on tachyzoites (TEM): affected the parasite cell division process; also recorded: induced a lytic effect in the parasite

## Fc1ccc(-c2nc(-c3c[nH]c4ccc(Br)cc34)[nH]c2-c2ccc(F)cc2)cc1 [MMV1593537]
[1]
  IC50: 940 ± 38.6 nM
NHDF cells; [6]
  CC50: 5.66 µM

## Cc1nc2ccc(Oc3ccccc3)cc2c2c1CCN2CCc1ccccc1 [MMV1634399]
[1]
  IC50: 920.3 ± 0.1 nM
NHDF cells; [6]
  CC50: 24.1 µM

## OCCC#Cc1nc(-c2ccc(F)cc2)c(-c2ccncc2)n1CCCc1ccccc1 [RWJ-67657]
[1]; Toxoplasma gondii, NHDF, 168 h
  IC50: 412 ± 21.7 nM
[3]; [6]
  CC50 at 7 days: 12.6 µM
NHDF cells
  SI (Selectivity Index, CC50 NHDF cells/IC50 T. gondii): 31
[2]; 1 µM
  Inhibition of parasite proliferation: 59.5%
[2]; Toxoplasma gondii, 1 µM
  inhibition at 1 µM: > 60%
T. gondii tachyzoites; 1 µM
  Ultrastructural alterations on tachyzoites (TEM): induced an extensive vacuolization (asterisks) in T. gondii and myelin-like bodies
T. gondii Me49 strain
  IC50: 0.8 µM
T. gondii RH strain
  IC50: 5 µM

## Cn1cc(NC(=O)c2cc(NC(=O)c3ccc(/C=C/c4cnc5ccccc5c4)cc3)cn2C)cc1C(=O)NCCN1CCOCC1 [MMV1634391]
NHDF cells; [7]
  CC50: > 10 µM
[4]
  Frequency of vacuoles (4 or 8 parasites) with at least one parasite presenting apicoplast loss: higher than 30%

## CCc1nc(N)nc(N)c1-c1ccc(Cl)cc1 [PYR, pyrimethamine]
[5]
  Concentration that abolished parasite proliferation recovery (no plaques): > 1 µM
  Concentrations at which monolayer lysis and plaque areas were seen after washout: all concentrations

## CCc1nc(N)nc(N)c1C#CC(C)c1cc(OC)cc(-c2ccncc2)c1 (stereo not shown) [MMV1580844]
NHDF cells; [6]
  CC50: 11.2 µM
[2]; 7 nM
  Inhibition of tachyzoite proliferation: more than 90%
[2]; concentrations close to 2 nM
  Inhibition of T. gondii proliferation: approximately 50%
[5]
  Concentrations at which monolayer lysis and plaque areas were seen after washout: 0.001 to 0.01 µM
T. gondii tachyzoites; 3 nM
  Ultrastructural alterations on tachyzoites (TEM): caused parasite lysis; also recorded: disrupted the parasite division process

## O=C(/C=C\n1cnc(-c2cc(C(F)(F)F)cc(C(F)(F)F)c2)n1)NNc1ccccn1 [Verdinexor]
[1]
  IC50: 70 ± 24.4 nM
[1]; listed as verdinexor
  IC50: ≤ 200 nM
[3]; [6]
  CC50 at 7 days: 2.86 µM
[2]; Toxoplasma gondii, 0.25 µM
  inhibition at 0.25 µM: > 80%
[2]; Toxoplasma gondii, 1 µM
  inhibition at 1 µM: 99%
T. gondii tachyzoites; 0.25 µM
  Ultrastructural alterations on tachyzoites (TEM): caused a drastic effect on the division of the parasite; also recorded: caused extensive vacuolization; also recorded: induced mitochondrial alterations

## Nc1nc(Nc2ccc3nc(-c4ccc(F)cc4)cc(N)c3c2)cc(-c2ccccc2)n1 [MMV1593541]
NHDF cells; [6]
  CC50: 2.54 µM
[2]; 125 nM
  Inhibition of T. gondii proliferation: more than 50%
[2]; 0.25 µM
  Inhibition of parasite proliferation: around 60%
T. gondii tachyzoites; 0.5 µM
  Ultrastructural alterations on tachyzoites (TEM): induced the formation of extensive cytoplasm vacuolization

## CN1CCN(Cc2ccc(-c3cnc4[nH]cc(-c5ccc6[nH]ccc6c5)c4c3)cc2)CC1 [URMC-099-C]
[3]; [7]
  CC50 at 7 days: > 10 µM
[2]; Toxoplasma gondii, 1 µM
  inhibition at 1 µM: > 60%
T. gondii tachyzoites; 1 µM
  Ultrastructural alterations on tachyzoites (TEM): induced an extensive vacuolization (asterisks) in T. gondii and myelin-like bodies
Balamuthia Mandrillaris
  IC50: 5.35 µM

## CC1=C(/C=C/C(C)=C/C=C/C(C)=C/C(=O)Nc2ccc(O)cc2)C(C)(C)CCC1 [Fenretinide]
[1]; Toxoplasma gondii, NHDF, 168 h
  IC50: 918 ± 29.1 nM
[3]; [6]
  CC50 at 7 days: 26.7 µM
NHDF cells
  SI (Selectivity Index, CC50 NHDF cells/IC50 T. gondii): 29

## CCC[C@@H]1C[C@@H](C(=O)N[C@@H]([C@H]2O[C@H](SC)[C@H](O)[C@@H](O)[C@H]2O)[C@H](C)Cl)N(C)C1 [Clindamycin]
[4]
  Frequency of vacuoles (4 or 8 parasites) with at least one parasite presenting apicoplast loss: higher than 30%

## COc1cc(NCc2ccc3nc(N)nc(N)c3c2C)cc(OC)c1OC [Trimetrexate]
[3]; [6]
  CC50 at 7 days: 11.9 µM
NHDF cells
  SI (Selectivity Index, CC50 NHDF cells/IC50 T. gondii): 3046
[2]; Toxoplasma gondii, 15 nM, read-out: Inhibition of tachyzoite proliferation
  inhibition at 0.015 µM: > 90%
[2]; concentrations close to 2 nM
  Inhibition of T. gondii proliferation: approximately 50%
[5]
  Concentrations at which monolayer lysis and plaque areas were seen after washout: 0.001 to 0.1 µM

## CCCCC(CC)CNC(=N)NC(=N)NCCCCCCNC(=N)NC(=N)NCC(CC)CCCC (stereo not shown) [Alexidine]
[1]; Toxoplasma gondii, NHDF, 168 h
  IC50: 272 ± 38.4 nM
[3]; [6]
  CC50 at 7 days: 1.63 µM
NHDF cells
  SI (Selectivity Index, CC50 NHDF cells/IC50 T. gondii): 6
[2]; Toxoplasma gondii, 0.25 µM
  inhibition at 0.25 µM: ~60%

## COc1cc(NS(=O)(=O)c2ccc(C)cc2)c2ncccc2c1 [DNDI1417411]
[1]
  IC50: 485 ± 43.8 nM
NHDF cells; [6]
  CC50: 14.5 µM
[2]; 1 µM
  Inhibition of parasite proliferation: more than 60%

## O=S(=O)(Nc1cccc2cccnc12)c1ccccc1 [MMV1578890]
[1]
  IC50: 1100 ± 0.1 nM
NHDF cells; [6]
  CC50: 10.3 µM

## CC[C@H]1OC(=O)[C@H](C)[C@@H](O[C@H]2C[C@@](C)(OC)[C@@H](O)[C@H](C)O2)[C@H](C)[C@@H](O[C@@H]2O[C@H](C)C[C@H](N(C)C)[C@H]2O)[C@](C)(O)C[C@@H](C)C(=O)[C@H](C)[C@@H](O)[C@]1(C)O [Erythromycin]
[1]
  IC50: 131 ± 15.8 nM
[1]; Toxoplasma gondii, NHDF, 168 h
  IC50: ≤ 200 nM
[3]; [6]
  CC50 at 7 days: 11.9 µM
NHDF cells
  SI (Selectivity Index, CC50 NHDF cells/IC50 T. gondii): 91

## COc1cc(C)c2c(Oc3cccc(C(F)(F)F)c3)c(OC)cc(NC(C)CCCN)c2n1 (stereo not shown) [Tafenoquine]
[1]; Toxoplasma gondii, NHDF, 168 h
  IC50: 896.9 ± 0.1 nM
[3]; [6]
  CC50 at 7 days: 16.3 µM
NHDF cells
  SI (Selectivity Index, CC50 NHDF cells/IC50 T. gondii): 18

## COc1ccc2sc3c(c2c1)NC(C)CNC3=O (stereo not shown) [MMV1782115]
[1]
  IC50: ≤ 200 nM and 161 nM
NHDF cells; [6]
  CC50: 9.43 µM
[2]; 1 µM
  Inhibition of parasite proliferation: more than 60%

## C=C[C@]1(C)C[C@@H](OC(=O)CS[C@@H]2C[C@H]3CC[C@@H](C2)N3C)[C@]2(C)[C@H](C)CC[C@]3(CCC(=O)[C@H]32)[C@@H](C)[C@@H]1O [Retapamulin]
[1]
  IC50: < 100 nM
[3]; [6]
  CC50 at 7 days: 9.98 µM
NHDF cells
  SI (Selectivity Index, CC50 NHDF cells/IC50 T. gondii): 270
[2]; 1 µM
  Inhibition of parasite proliferation: more than 50%
[2]; Toxoplasma gondii, 1 µM
  inhibition at 1 µM: > 60%
[4]
  Frequency of vacuoles (4 or 8 parasites) with at least one parasite presenting apicoplast loss: higher than 30%
